According to article PMC4138103 (PLoS ONE, 2014):

Tested on: Sprague-Dawley rats
Test: Bone geometry and densitometry (pQCT of tibia)
Format: in vivo, Rattus norvegicus
Set-up: key to Dose response: Densitometry, diaphysis, Cortical area / Dose response: Densitometry, metaphysis, Trabecular area: D: significant dose response (for results, see Table 2); T: significant trend
Conditions: tibia
Protocol: Hind limbs were collected and frozen at −20°C. Dissected right tibias were cleaned from soft tissue and stored in Ringer solution at −20°C until analysis. The length of each bone was measured using an electronic sliding caliper to the nearest 0.01 mm (IP65, Sylvac SA, Crissier, Switzerland). […] The thresholds for defining trabecular bone were 280 and 400 mg/cm^3, while cortical bone was defined above a threshold of 710 mg/cm^3. The voxel size was 0.07 mm.
Data were also analyzed using the BMD method, which is based on dose-response modeling of the full data set using a nested family of exponential and Hill models. The analyses were done on data of males and females combined, using sex as a covariate. […] In that case, different Critical Effect Doses (CEDs) and CEDs at the lowest bound of the confidence interval (CED-L) were generated for each sex. If no difference between sexes is detected, a CED and CED-Ls for the combined data is generated. However, this was also done if the curve fits are close, and separate analyses for males and females were then performed manually. CEDs and CED-Ls were calculated at the predefined Critical Effect Size (CES) of 5% (EFSA standard) or 10%.

[1] = females, total dose 1700 mg/kg bw
[2] = males, total dose 1000 mg/kg bw
[3] = males, total dose 1700 mg/kg bw

Clc1cc(Cl)c(-c2cc(Cl)c(Cl)c(Cl)c2Cl)cc1Cl [PCB 180, 2,2′,3′,4,4′,5,5′-heptachlorobiphenyl]
Densitometry, metaphysis: Trabecular density (females, total dose 1000 mg/kg bw): 209 mg/cm3 | Densitometry, diaphysis: Cortical area [1]: 3.10 mm2 | Densitometry, diaphysis: Cortical density [1]: 1307 mg/cm3 | Densitometry, diaphysis: Cortical thickness [1]: 0.48 mm | Densitometry, diaphysis: Endosteal circumference [1]: 5.01 mm | Densitometry, diaphysis: Periosteal circumference [1]: 8.00 mm | Densitometry, metaphysis: Total density [1]: 562 mg/cm3 | Densitometry, metaphysis: Trabecular area [1]: 5.84 mm2 | Densitometry, metaphysis: Trabecular density [1]: 221 mg/cm3 | Dose response: Densitometry, metaphysis, Trabecular area (females, total doses 0-1700 mg/kg bw): D | Densitometry, diaphysis: Cortical area (males, total dose 3 mg/kg bw): 4.04 mm2 | Densitometry, diaphysis: Cortical density (males, total dose 3 mg/kg bw): 1321 mg/cm3 | Densitometry, diaphysis: Cortical thickness (males, total dose 3 mg/kg bw): 0.56 mm | Densitometry, diaphysis: Endosteal circumference (males, total dose 3 mg/kg bw): 5.47 mm | Densitometry, diaphysis: Periosteal circumference (males, total dose 3 mg/kg bw): 8.98 mm | Densitometry, metaphysis: Total density (males, total dose 3 mg/kg bw): 493 mg/cm3 | Densitometry, metaphysis: Trabecular area (males, total dose 3 mg/kg bw): 8.42 mm2 | Densitometry, metaphysis: Trabecular density (males, total dose 3 mg/kg bw): 174 mg/cm3 | Densitometry, diaphysis: Cortical area (males, total dose 10 mg/kg bw): 3.95 mm2 | Densitometry, diaphysis: Cortical density (males, total dose 10 mg/kg bw): 1314 mg/cm3 | Densitometry, diaphysis: Cortical thickness (males, total dose 10 mg/kg bw): 0.54 mm | Densitometry, diaphysis: Endosteal circumference (males, total dose 10 mg/kg bw): 5.55 mm | Densitometry, diaphysis: Periosteal circumference (males, total dose 10 mg/kg bw): 8.97 mm | Densitometry, metaphysis: Total density (males, total dose 10 mg/kg bw): 465 mg/cm3 | Densitometry, metaphysis: Trabecular area (males, total dose 10 mg/kg bw): 8.96 mm2 | Densitometry, metaphysis: Trabecular density (males, total dose 10 mg/kg bw): 139 mg/cm3 | Densitometry, diaphysis: Cortical area (males, total dose 30 mg/kg bw): 4.08 mm2 | Densitometry, diaphysis: Cortical density (males, total dose 30 mg/kg bw): 1316 mg/cm3 | Densitometry, diaphysis: Cortical thickness (males, total dose 30 mg/kg bw): 0.56 mm | Densitometry, diaphysis: Endosteal circumference (males, total dose 30 mg/kg bw): 5.58 mm | Densitometry, diaphysis: Periosteal circumference (males, total dose 30 mg/kg bw): 9.08 mm | Densitometry, metaphysis: Total density (males, total dose 30 mg/kg bw): 485 mg/cm3 | Densitometry, metaphysis: Trabecular area (males, total dose 30 mg/kg bw): 8.63 mm2 | Densitometry, metaphysis: Trabecular density (males, total dose 30 mg/kg bw): 165 mg/cm3 | Densitometry, diaphysis: Cortical area (males, total dose 100 mg/kg bw): 4.06 mm2 | Densitometry, diaphysis: Cortical density (males, total dose 100 mg/kg bw): 1300 mg/cm3 | Densitometry, diaphysis: Cortical thickness (males, total dose 100 mg/kg bw): 0.55 mm | Densitometry, diaphysis: Endosteal circumference (males, total dose 100 mg/kg bw): 5.70 mm | Densitometry, diaphysis: Periosteal circumference (males, total dose 100 mg/kg bw): 9.14 mm | Densitometry, metaphysis: Total density (males, total dose 100 mg/kg bw): 458 mg/cm3 | Densitometry, metaphysis: Trabecular area (males, total dose 100 mg/kg bw): 9.57 mm2 | Densitometry, metaphysis: Trabecular density (males, total dose 100 mg/kg bw): 159 mg/cm3 | Densitometry, diaphysis: Cortical area (males, total dose 300 mg/kg bw): 4.06 mm2 | Densitometry, diaphysis: Cortical density (males, total dose 300 mg/kg bw): 1313 mg/cm3 | Densitometry, diaphysis: Cortical thickness (males, total dose 300 mg/kg bw): 0.56 mm | Densitometry, diaphysis: Endosteal circumference (males, total dose 300 mg/kg bw): 5.53 mm | Densitometry, diaphysis: Periosteal circumference (males, total dose 300 mg/kg bw): 9.03 mm | Densitometry, metaphysis: Total density (males, total dose 300 mg/kg bw): 474 mg/cm3 | Densitometry, metaphysis: Trabecular area (males, total dose 300 mg/kg bw): 8.85 mm2 | Densitometry, metaphysis: Trabecular density (males, total dose 300 mg/kg bw): 150 mg/cm3 | Densitometry, diaphysis: Cortical area [2]: 3.88 mm2 | Densitometry, diaphysis: Cortical density [2]: 1306 mg/cm3 | Densitometry, diaphysis: Cortical thickness [2]: 0.54 mm | Densitometry, diaphysis: Endosteal circumference [2]: 5.51 mm | Densitometry, diaphysis: Periosteal circumference [2]: 8.90 mm | Densitometry, metaphysis: Total density [2]: 468 mg/cm3 | Densitometry, metaphysis: Trabecular area [2]: 8.69 mm2 | Densitometry, metaphysis: Trabecular density [2]: 154 mg/cm3 | Densitometry, diaphysis: Cortical area [3]: 3.80 mm2 | Densitometry, diaphysis: Cortical density [3]: 1315 mg/cm3 | Densitometry, diaphysis: Cortical thickness [3]: 0.53 mm | Densitometry, diaphysis: Endosteal circumference [3]: 5.54 mm | Densitometry, diaphysis: Periosteal circumference [3]: 8.86 mm | Densitometry, metaphysis: Total density [3]: 483 mg/cm3 | Densitometry, metaphysis: Trabecular area [3]: 8.64 mm2 | Densitometry, metaphysis: Trabecular density [3]: 164 mg/cm3 | Dose response: Densitometry, diaphysis, Cortical area (males, total doses 0-1700 mg/kg bw): D
